Here are results for 34 molecules from patent US8791143B2, “Anthranilic diamide derivatives having cyclic side-chains” (priority 2010, dated 2014).

Each structure is given as a SMILES string. Like-named read-outs stand apart in the source and are kept apart here.

The nature of series [1]: log P by HPLC on reversed-phase columns (EEC Directive 79/831 Annex V.A8). It is filed as physicochemical.
The test system of series [2] is caterpillars of the armyworm (Spodoptera frugiperda). In words: Spodoptera frugiperda test (SPODFR spray treatment). It is filed as in vivo. The conditions noted are these: for pest or weed control at 100 g/ha: Spodoptera frugiperda, 168 h, read-out: activity in % (caterpillars killed).
Series [3] concerns larvae of the mustard beetle (Phaedon cochleariae). The series can be described thus: Phaedon test (PHAECO spray treatment). The conditions noted are these: for pest or weed control at 100 g/ha: Phaedon cochleariae, 168 h, read-out: activity in % (beetle larvae killed).
The mark [4] stands for this setting: reversed-phase C18 HPLC column, pH 2.7, HPLC reversed-phase C18, acidic range pH 2.7 (HCOOH), only or first value of the cell, read-out: log P.
Where [5] appears, read: application rate 100 g/ha, after 7 days.

With `Cc1cc(Cl)cc(C(=O)NCc2cccc(OC(F)(F)F)c2)c1NC(=O)c1cc(Cn2nnc(C(F)F)n2)nn1-c1ncccc1Cl` [Example 160], the chromatographic logP in series [1] (setting [4]) is 3.79. Further, the pest or weed control at 100 g/ha in series [2] (setting [5]) and in series [3] was 100% each time.
Consider `Cc1cc(Cl)cc(C(=O)NCc2ccc(OC(F)F)cc2)c1NC(=O)c1cc(Cn2nnc(C(F)F)n2)nn1-c1ncccc1Cl` [Example 161], for which the chromatographic logP in series [1] (setting [4]) turned out to be 3.42. Besides, the pest or weed control at 100 g/ha in series [2] (setting [5]) and in series [3] was 100% each time.
As to `Cc1cc(C#N)cc(C(=O)NCc2cccc(OC(F)(F)F)c2)c1NC(=O)c1cc(Cn2nnc(C(F)F)n2)nn1-c1ncccc1Cl` [Example 163], in series [1] (setting [4]), the chromatographic logP stood at 3.42. In addition, the pest or weed control at 100 g/ha in series [2] (setting [5]) and in series [3] was 100% each time.
Regarding `Cc1cc(C#N)cc(C(=O)NCc2ccc(OC(F)(F)F)cc2)c1NC(=O)c1cc(Cn2nnc(C(F)F)n2)nn1-c1ncccc1Cl` [Example 164], the chromatographic logP in series [1] (setting [4]) turned out to be 3.42. The pest or weed control at 100 g/ha in series [2] (setting [5]) and in series [3] was 100% throughout.
Regarding `Cc1cc(C#N)cc(C(=O)NCc2ccc(OC(F)F)cc2)c1NC(=O)c1cc(Cn2nnc(C(F)F)n2)nn1-c1ncccc1Cl` [Example 165], the chromatographic logP in series [1] (setting [4]) was 3.04. The pest or weed control at 100 g/ha in series [2] (setting [5]) and in series [3] was 100% throughout.
In the case of `Cc1cc(C#N)cc(C(=O)NCc2cccc(OC(F)(F)F)c2)c1NC(=O)c1cc(Cn2nnc(C(F)(F)F)n2)nn1-c1ncccc1Cl` [Example 166], in series [1] (setting [4]), the chromatographic logP came to 3.91. Further, the pest or weed control at 100 g/ha in series [2] (setting [5]) and in series [3] was 100% throughout.
As for `Cc1cc(C#N)cc(C(=O)NCc2ccc(OC(F)(F)F)cc2)c1NC(=O)c1cc(Cn2nnc(C(F)(F)F)n2)nn1-c1ncccc1Cl` [Example 167], the chromatographic logP in series [1] (setting [4]) is 3.9. In addition, the pest or weed control at 100 g/ha in series [2] (setting [5]) and in series [3] was 100% in each case.
Take `Cc1cc(C#N)cc(C(=O)NCc2ccc(OC(F)F)cc2)c1NC(=O)c1cc(Cn2nnc(C(F)(F)F)n2)nn1-c1ncccc1Cl` [Example 168]: the chromatographic logP in series [1] (setting [4]) was 3.49. The pest or weed control at 100 g/ha in series [2] (setting [5]) and in series [3] was 100% throughout.
As for `Cc1cc(F)cc(C(=O)NCc2cccc(OC(F)(F)F)c2)c1NC(=O)c1cc(Cn2nnc(C(F)(F)F)n2)nn1-c1ncccc1Cl` [Example 169], in series [1] (setting [4]), the chromatographic logP was determined as 3.95. Further, the pest or weed control at 100 g/ha in series [2] (setting [5]) and in series [3] was 100% each time.
On to `Cc1cc(F)cc(C(=O)NCc2ccc(OC(F)F)cc2)c1NC(=O)c1cc(Cn2nnc(C(F)(F)F)n2)nn1-c1ncccc1Cl` [Example 170], for which the chromatographic logP in series [1] (setting [4]) came to 3.55. In addition, the pest or weed control at 100 g/ha in series [2] (setting [5]) and in series [3] was 100% throughout.
`Cc1cc(Cl)cc(C(=O)NCc2ccccc2OC(F)F)c1NC(=O)c1cc(Cn2nnc(C(F)F)n2)nn1-c1ncccc1Cl` [Example 175]: in series [1] (setting [4]), the chromatographic logP came to 3.47. Moreover, the pest or weed control at 100 g/ha in series [2] (setting [5]) and in series [3] was 100% each time.
Regarding `Cc1cc(C#N)cc(C(=O)NCc2cccc(OC(F)F)c2)c1NC(=O)c1cc(Cn2nnc(C(F)F)n2)nn1-c1ncccc1Cl` [Example 178], the chromatographic logP in series [1] (setting [4]) was determined as 3.08. Moreover, the pest or weed control at 100 g/ha in series [2] (setting [5]) worked out at 83%; in series [3], 100%.
Turning to `Cc1cc(C#N)cc(C(=O)NCc2cccc(OC(F)F)c2)c1NC(=O)c1cc(Cn2nnc(C(F)(F)F)n2)nn1-c1ncccc1Cl` [Example 180], the chromatographic logP in series [1] (setting [4]) came out at 3.54. The pest or weed control at 100 g/ha in series [2] (setting [5]) and in series [3] was 100% throughout.
On to `Cc1cc(C#N)cc(C(=O)NCc2ccc3c(c2)OCO3)c1NC(=O)c1cc(Cn2nnc(C(F)(F)F)n2)nn1-c1ccccc1Cl` [Example 182], for which, in series [1] (setting [4]), the chromatographic logP came out at 3.64. Further, the pest or weed control at 100 g/ha was found to be 83% in series [2] (setting [5]) and 100% in series [3].
With `Cc1c(F)ccc(C(=O)NCc2cccc(Cl)c2)c1NC(=O)c1cc(Cn2nnc(C(F)(F)F)n2)nn1-c1ncccc1Cl` [Example 183], the chromatographic logP in series [1] (pH 2.7, log P) was determined as 3.82. For the same molecule, the pest or weed control at 100 g/ha in series [2] and in series [3] was 100% in each case.
As to `Cc1c(F)ccc(C(=O)NCc2ccc(Cl)cc2)c1NC(=O)c1cc(Cn2nnc(C(F)(F)F)n2)nn1-c1ncccc1Cl` [Example 184], the chromatographic logP in series [1] (pH 2.7, log P) was 3.8. Further, the pest or weed control at 100 g/ha in series [2] and in series [3] was 100% throughout.
For the molecule `Cc1c(F)ccc(C(=O)NCc2ccccc2OC(F)(F)F)c1NC(=O)c1cc(Cn2nnc(C(F)(F)F)n2)nn1-c1ncccc1Cl` [Example 185], the chromatographic logP in series [1] (setting [4]) is 4.04. Moreover, the pest or weed control at 100 g/ha in series [2] (setting [5]) and in series [3] was 100% each time.
Regarding `Cc1c(F)ccc(C(=O)NCc2cccc(OC(F)(F)F)c2)c1NC(=O)c1cc(Cn2nnc(C(F)(F)F)n2)nn1-c1ncccc1Cl` [Example 186], the chromatographic logP in series [1] (setting [4]) was determined as 4.07. The pest or weed control at 100 g/ha in series [2] (setting [5]) and in series [3] was 100% throughout.
Turning to `Cc1c(F)ccc(C(=O)NCc2ccc(OC(F)(F)F)cc2)c1NC(=O)c1cc(Cn2nnc(C(F)(F)F)n2)nn1-c1ncccc1Cl` [Example 187], the chromatographic logP in series [1] (setting [4]) is 4.05. Moreover, the pest or weed control at 100 g/ha in series [2] (setting [5]) and in series [3] was 100% in each case.
As for `Cc1cc(C#N)cc(C(=O)NCc2ccccc2OC(F)(F)F)c1NC(=O)c1cc(Cn2nnc(C(F)(F)F)n2)nn1-c1c(Cl)cccc1Cl` [Example 188], in series [1] (setting [4]), the chromatographic logP was 4.13. Moreover, the pest or weed control at 100 g/ha in series [2] (setting [5]) and in series [3] was 100% throughout.
For the molecule `Cc1cc(C#N)cc(C(=O)NCc2ccccc2OC(F)F)c1NC(=O)c1cc(Cn2nnc(C(F)(F)F)n2)nn1-c1c(Cl)cccc1Cl` [Example 189], the chromatographic logP in series [1] (setting [4]) amounted to 3.75. In addition, the pest or weed control at 100 g/ha in series [2] (setting [5]) and in series [3] was 100% throughout.
As for `Cc1cc(C#N)cc(C(=O)NCc2ccccc2OC(F)F)c1NC(=O)c1cc(Cn2nnc(C(F)(F)F)n2)nn1-c1ccccc1Cl` [Example 190], the chromatographic logP in series [1] (setting [4]) is 3.88. In addition, the pest or weed control at 100 g/ha in series [2] (setting [5]) and in series [3] was 100% each time.
Consider `Cc1cc(C#N)cc(C(=O)NCc2ccc(OC(F)F)cc2)c1NC(=O)c1cc(Cn2nnc(C(F)(F)F)n2)nn1-c1ccccc1Cl` [Example 191], for which the chromatographic logP in series [1] (setting [4]) is 3.81. In addition, the pest or weed control at 100 g/ha in series [2] (setting [5]) and in series [3] was 100% in each case.
For `Cc1cc(C#N)cc(C(=O)NCc2ccc(OC(F)(F)F)cc2)c1NC(=O)c1cc(Cn2nnc(C(F)(F)F)n2)nn1-c1ccccc1Cl` [Example 192], the chromatographic logP in series [1] (setting [4]) is 3.98. The pest or weed control at 100 g/ha in series [2] (setting [5]) and in series [3] was 100% in each case.
Turning to `O=C(NCc1cccc(OC(F)(F)F)c1)c1cc(Br)cc(Cl)c1NC(=O)c1cc(Cn2nnc(C(F)(F)F)n2)nn1-c1ncccc1Cl` [Example 194], the chromatographic logP in series [1] (setting [4]) amounted to 4.32. The pest or weed control at 100 g/ha in series [2] (setting [5]) and in series [3] was 100% in each case.
`O=C(NCc1ccc(OC(F)(F)F)cc1)c1cc(Br)cc(Cl)c1NC(=O)c1cc(Cn2nnc(C(F)(F)F)n2)nn1-c1ncccc1Cl` [Example 195]: the chromatographic logP in series [1] (setting [4]) was found to be 4.31. Also, the pest or weed control at 100 g/ha in series [2] (setting [5]) and in series [3] was 100% in each case.
`Cc1ccc(Cl)c(C(=O)NCc2ccccc2Cl)c1NC(=O)c1cc(Cn2nnc(C(F)(F)F)n2)nn1-c1ncccc1Cl` [Example 196] had a chromatographic logP in series [1] (pH 2.7, log P) of 3.64. For the same molecule, the pest or weed control at 100 g/ha in series [2] and in series [3] was 100% each time.
As to `Cc1ccc(Cl)c(C(=O)NCc2cccc(Cl)c2)c1NC(=O)c1cc(Cn2nnc(C(F)(F)F)n2)nn1-c1ncccc1Cl` [Example 197], in series [1] (pH 2.7, log P), the chromatographic logP was determined as 3.74. Besides, the pest or weed control at 100 g/ha in series [2] and in series [3] was 100% each time.
On to `Cc1c(F)ccc(C(=O)NCc2ccccc2Cl)c1NC(=O)c1cc(Cn2nnc(C(F)(F)F)n2)nn1-c1ncccc1Cl` [Example 202], for which, in series [1] (pH 2.7, log P), the chromatographic logP was 3.79. The pest or weed control at 100 g/ha in series [2] and in series [3] was 100% throughout.
Consider `O=C(NCc1ccccc1Cl)c1cc(Br)cc(Cl)c1NC(=O)c1cc(Cn2nnc(C(F)(F)F)n2)nn1-c1ncccc1Cl` [Example 203], for which the chromatographic logP in series [1] (pH 2.7, log P) was determined as 4.07. Also, the pest or weed control at 100 g/ha in series [2] and in series [3] was 100% in each case.
Turning to `O=C(NCc1cccc(Cl)c1)c1cc(Br)cc(Cl)c1NC(=O)c1cc(Cn2nnc(C(F)(F)F)n2)nn1-c1ncccc1Cl` [Example 204], the chromatographic logP in series [1] (pH 2.7, log P) is 4.09. In addition, the pest or weed control at 100 g/ha in series [2] and in series [3] was 100% in each case.
In turn, `O=C(NCc1ccc(Cl)cc1)c1cc(Br)cc(Cl)c1NC(=O)c1cc(Cn2nnc(C(F)(F)F)n2)nn1-c1ncccc1Cl` [Example 205] gave a chromatographic logP in series [1] (pH 2.7, log P) of 4.08. For the same molecule, the pest or weed control at 100 g/ha in series [2] and in series [3] was 100% each time.
As for `O=C(NCc1cccc(Cl)c1)c1cc(Cl)cc(F)c1NC(=O)c1cc(Cn2nnc(C(F)(F)F)n2)nn1-c1ncccc1Cl` [Example 207], the chromatographic logP in series [1] (setting [4]) came to 3.89. Besides, the pest or weed control at 100 g/ha in series [2] (setting [5]) and in series [3] was 100% throughout.
Usually log P stands for the decadic logarithm of the partition coefficient of the neutral form, usually between octanol and water. Regarding `O=C(NCc1ccc(Cl)cc1)c1cc(Cl)cc(F)c1NC(=O)c1cc(Cn2nnc(C(F)(F)F)n2)nn1-c1ncccc1Cl` [Example 208], in series [1] (HPLC reversed-phase C18, acidic range pH 2.7 (HCOOH), only or first value of the cell), the “log P” value is on record as 3.95. Further, the “activity in % (caterpillars killed)” value in series [2] (setting [5]) is reported as 100%. Moreover, the “activity in % (beetle larvae killed)” value in series [3] (setting [5]) is on record as 100%.
